Source: PMC10006169, “A phase I trial of LXS196, a protein kinase C (PKC) inhibitor, for metastatic uveal melanoma” (British Journal of Cancer, 2023)
Read-outs that look alike come from different tables or passages of the source.

Assay: Plasma pharmacokinetics (LC-MS/MS)
Assay type: in vivo, human
Details: human, plasma, oral; for Tmax: read-out: Tmax, Median (Min, max)
Description: In the dose escalation part of the study, PK samples were collected at various pre- and post-dose time points on C1D1, D2, D3, D15 and D16. Drug concentrations were assessed using a validated liquid chromatography-tandem mass spectrometry assay.

CC1(N)CCN(c2cccnc2NC(=O)c2nc(-c3ncccc3C(F)(F)F)cnc2N)CC1 [LXS196]
AUC(0-t) (300 mg, C1D1, 300 mg BID, n=17, read-out: AUC0-t, Geo-mean): 18700 ng·h/mL | AUC(0-t) (300 mg, C1D1, 300 mg BID, n=17, read-out: AUC0-t, Mean (SD)): 20500 ng·h/mL | AUC(0-t) (300 mg, C1D1, 300 mg BID, n=17, read-out: AUC0-t, Median (Min, max)): 17000 ng·h/mL | Cmax (300 mg, C1D1, 300 mg BID, n=17, read-out: Cmax, Geo-mean): 3850 ng/mL | Cmax (300 mg, C1D1, 300 mg BID, n=17, read-out: Cmax, Mean (SD)): 4100 ng/mL | Cmax (300 mg, C1D1, 300 mg BID, n=17, read-out: Cmax, Median (Min, max)): 4210 ng/mL | Tmax (300 mg, C1D1, 300 mg BID, n=17): 1 h | AUC(0-t) (300 mg, C1D1, 300 mg QD, n=15, read-out: AUC0-t, Geo-mean): 34000 ng·h/mL | AUC(0-t) (300 mg, C1D1, 300 mg QD, n=15, read-out: AUC0-t, Mean (SD)): 40200 ng·h/mL | AUC(0-t) (300 mg, C1D1, 300 mg QD, n=15, read-out: AUC0-t, Median (Min, max)): 34400 ng·h/mL | AUC(0-inf) (300 mg, C1D1, 300 mg QD, n=15, read-out: AUCinf, Geo-mean): 42100 ng·h/mL | AUC(0-inf) (300 mg, C1D1, 300 mg QD, n=15, read-out: AUCinf, Mean (SD)): 51300 ng·h/mL | AUC(0-inf) (300 mg, C1D1, 300 mg QD, n=15, read-out: AUCinf, Median (Min, max)): 43100 ng·h/mL | Cmax (300 mg, C1D1, 300 mg QD, n=15, read-out: Cmax, Geo-mean): 4940 ng/mL | Cmax (300 mg, C1D1, 300 mg QD, n=15, read-out: Cmax, Mean (SD)): 5580 ng/mL | Cmax (300 mg, C1D1, 300 mg QD, n=15, read-out: Cmax, Median (Min, max)): 5370 ng/mL | half-life (300 mg, C1D1, 300 mg QD, n=15, read-out: T1/2, Geo-mean (converted)): 10.7 h | half-life (300 mg, C1D1, 300 mg QD, n=15, read-out: T1/2, Mean (SD) (converted)): 10.8 h | half-life (300 mg, C1D1, 300 mg QD, n=15, read-out: T1/2, Median (Min, max) (converted)): 11.1 h | Tmax (300 mg, C1D1, 300 mg QD, n=15): 1 h | AUC(0-t) (300 mg, C1D15, 300 mg BID, n=12, read-out: AUC0-t, Geo-mean): 18300 ng·h/mL | AUC(0-t) (300 mg, C1D15, 300 mg BID, n=12, read-out: AUC0-t, Mean (SD)): 19100 ng·h/mL | AUC(0-t) (300 mg, C1D15, 300 mg BID, n=12, read-out: AUC0-t, Median (Min, max)): 17400 ng·h/mL | Cmax (300 mg, C1D15, 300 mg BID, n=17, read-out: Cmax, Geo-mean): 2800 ng/mL | Cmax (300 mg, C1D15, 300 mg BID, n=17, read-out: Cmax, Mean (SD)): 2860 ng/mL | Cmax (300 mg, C1D15, 300 mg BID, n=17, read-out: Cmax, Median (Min, max)): 2880 ng/mL | Tmax (300 mg, C1D15, 300 mg BID, n=17): 0.567 h | AUC(0-t) (300 mg, C1D15, 300 mg QD, n=13, read-out: AUC0-t, Geo-mean): 26500 ng·h/mL | AUC(0-t) (300 mg, C1D15, 300 mg QD, n=13, read-out: AUC0-t, Mean (SD)): 30500 ng·h/mL | AUC(0-t) (300 mg, C1D15, 300 mg QD, n=13, read-out: AUC0-t, Median (Min, max)): 27900 ng·h/mL | Cmax (300 mg, C1D15, 300 mg QD, n=14, read-out: Cmax, Geo-mean): 3500 ng/mL | Cmax (300 mg, C1D15, 300 mg QD, n=14, read-out: Cmax, Mean (SD)): 3860 ng/mL | Cmax (300 mg, C1D15, 300 mg QD, n=14, read-out: Cmax, Median (Min, max)): 3310 ng/mL | concentration at 15 day (300 mg, C1D15, 300 mg QD, n=14, read-out: Cmin, Median (Min, max)): 326 ng/mL | Tmax (300 mg, C1D15, 300 mg QD, n=14): 1 h | AUC(0-t) (400 mg, C1D1, 400 mg BID, n=5, read-out: AUC0-t, Geo-mean): 16800 ng·h/mL | AUC(0-t) (400 mg, C1D1, 400 mg BID, n=5, read-out: AUC0-t, Mean (SD)): 18100 ng·h/mL | AUC(0-t) (400 mg, C1D1, 400 mg BID, n=5, read-out: AUC0-t, Median (Min, max)): 18200 ng·h/mL | AUC(0-inf) (400 mg, C1D1, 400 mg BID, n=5, read-out: AUCinf, Geo-mean): 28400 ng·h/mL | AUC(0-inf) (400 mg, C1D1, 400 mg BID, n=5, read-out: AUCinf, Mean (SD)): 30400 ng·h/mL | AUC(0-inf) (400 mg, C1D1, 400 mg BID, n=5, read-out: AUCinf, Median (Min, max)): 31700 ng·h/mL | Cmax (400 mg, C1D1, 400 mg BID, n=5, read-out: Cmax, Geo-mean): 3730 ng/mL | Cmax (400 mg, C1D1, 400 mg BID, n=5, read-out: Cmax, Mean (SD)): 4350 ng/mL | Cmax (400 mg, C1D1, 400 mg BID, n=5, read-out: Cmax, Median (Min, max)): 3850 ng/mL | half-life (400 mg, C1D1, 400 mg BID, n=5, read-out: T1/2, Geo-mean (converted)): 13.5 h | half-life (400 mg, C1D1, 400 mg BID, n=5, read-out: T1/2, Mean (SD) (converted)): 13.8 h | half-life (400 mg, C1D1, 400 mg BID, n=5, read-out: T1/2, Median (Min, max) (converted)): 14.5 h | Tmax (400 mg, C1D1, 400 mg BID, n=5): 1.03 h | AUC(0-t) (400 mg, C1D15, 400 mg BID, n=4, read-out: AUC0-t, Geo-mean): 15700 ng·h/mL | AUC(0-t) (400 mg, C1D15, 400 mg BID, n=4, read-out: AUC0-t, Mean (SD)): 15900 ng·h/mL | AUC(0-t) (400 mg, C1D15, 400 mg BID, n=4, read-out: AUC0-t, Median (Min, max)): 16000 ng·h/mL | Cmax (400 mg, C1D15, 400 mg BID, n=4, read-out: Cmax, Geo-mean): 2070 ng/mL | Cmax (400 mg, C1D15, 400 mg BID, n=4, read-out: Cmax, Mean (SD)): 2100 ng/mL | Cmax (400 mg, C1D15, 400 mg BID, n=4, read-out: Cmax, Median (Min, max)): 2060 ng/mL | Tmax (400 mg, C1D15, 400 mg BID, n=4): 0.842 h | AUC(0-t) (500 mg, C1D1, 500 mg QD, n=10, read-out: AUC0-t, Geo-mean): 48000 ng·h/mL | AUC(0-t) (500 mg, C1D1, 500 mg QD, n=10, read-out: AUC0-t, Mean (SD)): 50700 ng·h/mL
